Test results as given in patent US11926645B2, “Compounds and methods for treatment of viral infections” (priority 2020, dated 2024).
Read-outs that look alike come from different tables or passages of the source.

Experiments:
RSV strain A2 = assay: RSV antiviral assay (Hep2), EC50-Hep2/B1-384; type: cell-based; conditions: human respiratory syncytial virus, HEp-2, 96 h; Hep2 cells, 4 days, Cell-Titer Glo
in vitro [1] = type: cell-based; conditions: human
Procedure: The cytotoxicity of compounds was determined in A549-hACE2 cells in the following manner. Compounds (200 nL) were spotted onto 384-well Grenier plates prior to seeding 5000 A549-hACE2 cells/well in a volume of 40 μL culture medium. The plates were incubated at 37° C. for 48 hours with 5% CO2. On day 2, 40 μL of CellTiter-Glo (Promega) was added and mixed 5 times.

[2] = system: RSV-Fluc (Respiratory Syncytial virus strain A2 containing the firefly luciferase reporter); assay: microbe, parasite or virus in culture; type: cell-based; conditions: human respiratory syncytial virus, 72 h, NHBE cells, three days
[3] = system: SARS-CoV-2 SA/2020 B.1.351; assay: microbe, parasite or virus in culture; type: cell-based; conditions: Severe acute respiratory syndrome coronavirus 2, Vero C1008
SARS-CoV-2 WA1/2020 A = assay: microbe, parasite or virus in culture; type: cell-based; conditions: Severe acute respiratory syndrome coronavirus 2, Vero C1008
SARS-CoV-2 BZ/2021 P.1 = assay: microbe, parasite or virus in culture; type: cell-based; conditions: Severe acute respiratory syndrome coronavirus 2, Vero C1008
[4] = system: SARS-CoV-2 2019-nCoV/USA-WA1/2020; type: in vivo
SARS-CoV-2 (WA1) = type: in vivo, AGM
in vitro [5] = type: in vitro ADME, Human; conditions: human, s9, pH 7.4
Procedure: Duplicate aliquots of test compound or positive control substrate (GS-7340) were added to S9 stock diluted with 100 mM phosphate buffered saline, pH 7.4, to obtain a protein concentration of 1.0 mg/mL. The S9 metabolic reactions were initiated by the addition of the substrates to the S9 reaction mixture to a final concentration of 2 μM. At 0, 10, 20, 30, 60 and 120 min, 25 μL aliquots of the reaction mixture were transferred to plates containing 225 μl of IS/Q solution. After quenching, the plates were centrifuged at 3000×g for 30 minutes, and 150 μL aliquots of each supernatant were diluted with 150 μL water. Aliquots (10 μL) of the diluted supernatant were analyzed on a Thermo Q-Exactive mass spectrometer as described below.
Quantification of test compounds and controls was performed by analyte/internal standard peak area ratio (PAR) values measured on a Thermo Q-Exactive mass spectrometer coupled to a Dionex UltiMate 3000 HPLC with a Leap Technologies HTC PAL autosampler. The column used was a Thermo Hypersil GOLD (1.9 μm particle size, 2.1×50 mm). Mobile phase A consisted of 0.1% (v/v) formic acid in water. Mobile phase B consisted of 0.1% (v/v) formic acid in acetonitrile. Elution of analytes was achieved by a series of linear gradients of acetonitrile in water containing 0.1% (v/v) formic acid. The mass spectrometer was calibrated on a weekly basis and mass tolerance of 5 ppm was used.

CES2 = molecular target: T1, CES2 (Homo sapiens, UniProt O00748); assay: CES1/2 stability, CES2; type: in vitro ADME; conditions: CES2 Supersome preparation; Supersome preparations, CES 1.5 mg/ml, 2 μM substrate, pH 7.4, 37° C.; read-out: CES2 T1/2
T1 construct: purchased
T1 sequence (O00748 27-559): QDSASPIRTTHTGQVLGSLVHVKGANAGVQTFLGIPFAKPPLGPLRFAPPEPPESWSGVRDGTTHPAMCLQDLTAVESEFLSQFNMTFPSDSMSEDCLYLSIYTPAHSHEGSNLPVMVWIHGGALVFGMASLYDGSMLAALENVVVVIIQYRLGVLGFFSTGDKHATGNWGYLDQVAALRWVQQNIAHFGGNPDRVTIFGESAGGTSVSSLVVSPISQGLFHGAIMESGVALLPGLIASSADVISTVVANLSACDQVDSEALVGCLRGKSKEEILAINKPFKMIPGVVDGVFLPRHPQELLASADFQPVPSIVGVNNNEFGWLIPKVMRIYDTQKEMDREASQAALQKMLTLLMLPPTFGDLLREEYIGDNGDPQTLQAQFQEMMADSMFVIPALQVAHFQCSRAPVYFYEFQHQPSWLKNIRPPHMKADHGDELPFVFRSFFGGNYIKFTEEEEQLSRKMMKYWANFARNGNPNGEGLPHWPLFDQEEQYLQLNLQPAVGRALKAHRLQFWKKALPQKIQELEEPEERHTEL
Procedure: Test compounds or positive control substrates (oseltamivir for CES1 enzymes or procaine for CES2) were incubated with individual Supersome preparations (final CES concentration 1.5 mg/ml) in 0.1 M potassium phosphate buffer (pH 7.4) at 37° C. Substrates were added to a final concentration of 2 μM to initiate the reaction. The final incubation volume was 250 μL. Aliquots were removed after incubation for 0, 10, 30, 60 and 120 min. The reactions were stopped by the addition of IS/Q. Following protein precipitation and centrifugation, 150 μL of supernatant was diluted with an equal volume of water prior to LC-MS analysis. For procaine 150 μL of supernatant was dried down and reconstituted with 250 μL water. All samples were analyzed by LC-MS and the PAR values were used for quantification.

[6] = male, Sprague-Dawley, rat, in vivo, po, 8 mg/kg
[7] = in vivo, po
[8] = in vivo, po; remark: listed apart in the source
in vitro [9] = conditions: African green monkey
in vitro [10] = conditions: human, PrestoBlue
[11] = […], Compound 1 10 mg/kg and 3 mg/kg, EIDD-2801/molnupiravir 5 mg/kg

Structure (SMILES): CC(C)C(=O)OC[C@H]1O[C@@](C#N)(c2ccc3c(N)ncnn23)[C@H](OC(=O)C(C)C)[C@@H]1OC(=O)C(C)C [Compound 1, (2R,3R,4R,5R)-2-(4-aminopyrrolo[2,1-f][1,2,4]triazin-7-yl)-2-cyano-5-((isobutyryloxy)methyl)tetrahydrofuran-3,4-diyl bis(2-methylpropanoate)]
- EC50 (RSV strain A2): 0.261 µM
- CC50 at 48 h (in vitro [1]): > 50 µM
- CC50 (in vitro [1]; host cells A549-ACE2, read-out: CC50, A549-ACE2): > 50 µM
- EC50 [2]: 0.389 µM
- EC50 [3]: 0.11 µM
- EC50 (SARS-CoV-2 WA1/2020 A): 0.73 µM
- EC50 (SARS-CoV-2 BZ/2021 P.1): 0.22 µM
- Clinical signs versus vehicle animals [4, 11]: No significant differences in clinical signs
- Virus burden in the turbinates [4, 11]: reduced burden in the turbinates
- Shed virus load (nasal lavages) versus vehicle ([4]; […], Compound 1 10 mg/kg and 3 mg/kg, EIDD-2801/molnupiravir 5 mg/kg, within 12 hours of treatment onset): lower in all treated animals than in the vehicle group
- Viral RNA copies in nasal lavages and turbinates versus vehicle ([4]; […], Compound 1 10 mg/kg, EIDD-2801/molnupiravir 5 mg/kg): statistically significant mean reduction
- Clinical signs (body temperature, weight gain) ([4]; in vivo, po, 20 mg/kg): only animals of the vehicle group showed elevated body temperature
- Shed SARS-CoV-2 load in nasal lavages ([4]; in vivo, po, 20 mg/kg): transiently detectable in lavages of only one ferret
- Viral RNA copy numbers in turbinates, difference between vehicle and treatment groups ([4]; in vivo, po, 20 mg/kg): three
- Virus in nasal turbinates 4 days after infection ([4]; in vivo, po, 20 mg/kg): undetectable
- Infectious SARS-CoV-2 titers versus vehicle (SARS-CoV-2 (WA1); AGMs, PO 60 or 120 mg/kg QD, days 2-6): trended lower than the vehicle group
- Viral RNA loads in lower lung tissue versus vehicle (SARS-CoV-2 (WA1); AGMs, PO 60 or 120 mg/kg QD, terminal day 6): trended lower
- mean SARS-CoV-2 gRNA in BALF versus vehicle (SARS-CoV-2 (WA1); in vivo, po): significantly reduced
- SARS-CoV-2 gRNA in BALF versus vehicle (SARS-CoV-2 (WA1); in vivo, po, 60 mg/kg): significantly lower than vehicle animals
- half-life at 2 μM (in vitro [5]): 22.2 s
- half-life at 2 μM (CES2): < 60 s
- Cmax [6]: 5.83 µM
- Compound 1 concentration transiently observed ([7]; ferret, 30 mg/kg): ^aapproximately 10 nM Compound 1 transiently observed in first two hours.
- oral bioavailability (in words) [7]: excellent oral bioavailability
- Cmax ([7]; 30 mg/kg): 15.8 ± 4.7 µM
- anabolism to bioactive Reference Compound B (in words) [8]: efficient anabolism to bioactive Reference Compound B
- CC50 (in vitro [9]): > 100 µM
- CC50 (in vitro [10]; CC50, DF2 HAE, primary diseased (asthma) HAE donor DF2, 72 hours): 86 µM
- CC50 (in vitro [10]; CC50, F2 HAE, primary HAE donor F2, 72 hours): 43.8 µM
- CC50 (in vitro [10]; CC50, F3 HAE, primary HAE donor F3, 72 hours): 43.8 µM
- CC50 (in vitro [10]; CC50, M2 HAE, primary HAE donor M2, 72 hours): 39.7 µM
- CC50 (in vitro [10]; CC50, M6 HAE, primary HAE donor M6, 72 hours): 92.3 µM
